Like-named read-outs stand apart in the source and are kept apart here.
Columns and labels:
dopamine D1 receptor = target: T1, dopamine D1 receptor (Rattus norvegicus, UniProt P18901); experiment: binding to dopamine D1 receptor in homogenates from rat striatum
T1 construct: homogenates from rat striatum; from tissue; host or cells: rat striatum homogenate
From the text: Ki is the affinity of tested compounds for the dopamine D1 receptor.

in vivo [1] = experiment: in vivo; parameters: species or system mongrel dogs; settings: dog, po
Experimental: As already mentioned, the benzazepines of the general formula given in Table II with X representing halogen have a low oral bioavailability. […] Some test results are stated in the following.
The benzazepines are administered orally to dogs and subsequently samples of their blood plasma are analysed for the compound by a specific HPLC-method. The area under the curve showing the oral plasma concentration versus time is calculated. This area is designated […].
The absolute oral bioavailability, F, is calculated as the ratio between the area representing the oral dose and the area for the intravenous dose according to the formula [formula]

[2] = tested on: methyl-phenidate-induced gnawing behaviour of mice; experiment: antagonism of methylphenidate-induced stereotyped gnawing in mice; settings: Mus musculus
From the text: (§1) Following the method of Pedersen, V. and Christensen, A.V.: "Antagonism of methylphenidate-induced stereotyped gnawing in mice", Acta Pharmacol. et Toxicol. 31: 488-496, 1972, antagonism of dopamine-dependent, methyl-phenidate-induced gnawing behaviour of mice, was used to assess the effects of the present D-1 antagonists. Further, the ratio of ED50 values obtained using i.v. administration and oral administration, respectively, was taken as an index of the bioavailability of the test drugs.

in vivo [3] = settings: mouse, in vivo
From the text: as §1

[4] = in words; Life Sci. 34 (1984) 1529; cited from earlier work
D1 dopamine = settings: in words; Eur.J.Pharmacol. 91 (1983) 153; cited from earlier work
[5] = Table I, rat striatum homogenates, (+) enantiomere or racemic mixtures, read-out: Ki Dopamine D1 receptor
[6] = Table II, unit inferred, read-out: Ki

T1 sequence (P18901 whole entry): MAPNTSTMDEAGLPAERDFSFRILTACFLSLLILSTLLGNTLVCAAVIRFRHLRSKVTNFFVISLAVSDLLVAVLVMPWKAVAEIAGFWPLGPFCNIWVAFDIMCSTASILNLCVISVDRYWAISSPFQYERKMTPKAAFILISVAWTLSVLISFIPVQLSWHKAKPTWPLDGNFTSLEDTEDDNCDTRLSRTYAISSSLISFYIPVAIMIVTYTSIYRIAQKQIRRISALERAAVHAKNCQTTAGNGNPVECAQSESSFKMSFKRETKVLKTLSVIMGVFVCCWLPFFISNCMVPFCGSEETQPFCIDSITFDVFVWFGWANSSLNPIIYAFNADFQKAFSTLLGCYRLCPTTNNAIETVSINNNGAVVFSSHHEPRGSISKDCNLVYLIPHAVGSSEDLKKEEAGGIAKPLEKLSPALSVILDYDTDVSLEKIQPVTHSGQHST

| Structure (SMILES) | Ki (dopamine D1 receptor; [5]) [nM] | Ki (dopamine D1 receptor; [6]) [nM] | ED50 ([2]; iv, read-out: ED50 i.v.) [mg/kg] | ED50 ([2]; po, read-out: ED50 p.o.) [mg/kg] | selectivity ratio (in vivo [3]) | further results |
| --- | --- | --- | --- | --- | --- | --- |
| CN1CCc2cc([N+](=O)[O-])c(O)cc2[C@@H]2c3ccccc3CC[C@H]21 (relative stereo) [Example 7, trans-[6,7,7a,8,9,13b]-hexahydro-2-hydroxy-7-methyl-3-nitro-5H-benzo[d]naphto[2,1-b]azepine] | 169 | – | – | – | – | – |
| CN1CCc2cc([N+](=O)[O-])c(O)cc2[C@@H](c2ccccc2)C1 [Example 4, (R)-7-hydroxy-3-methyl-8-nitro-5-phenyl-2,3,4,5-tetrahydro-1H-3-benzazepine] | 13 | 13 | 5.4 | 11.9 | 2.2 | – |
| CN1CCc2cc(Cl)c(O)cc2[C@@H](c2ccccc2)C1 [SCH 23390, (R)-8-chloro-7-hydroxy-2,3,4,5-tetrahydro-3-methyl-5-phenyl-1H-3-benzazepine] | – | – | 0.017 | 6.5 | – | bioavailability after oral administration [4]: poor bioavailability after oral administration; duration of action [4]: short duration of action; D1 dopamine antagonism (D1 dopamine): selective D1 dopamine antagonist |

Second part, led by results:

| Ki (dopamine D1 receptor; [5]) [nM] | Ki (dopamine D1 receptor; [6]) [nM] | Structure (SMILES) | ED50 ([2]; iv, read-out: ED50 i.v.) [mg/kg] | ED50 ([2]; po, read-out: ED50 p.o.) [mg/kg] | selectivity ratio (in vivo [3]) | further results |
| --- | --- | --- | --- | --- | --- | --- |
| 11 | 4.6 | CN1CCc2cc([N+](=O)[O-])c(O)cc2C(c2cccc3c2OCC3)C1 (single isomer, unassigned; (+)) [Example 5, (+)-5-(2,3-dihydrobenzofuran-7-yl)-7-hydroxy-3-methyl-8-nitro-2,3,4,5-tetrahydro-1H-3-benzazepine] | 0.11 | 1.9 | 17.3 | bioavailability (in vivo [1]): 65% |
| – | 0.2 | CN1CCc2cc(Cl)c(O)cc2C(c2cccc3c2OCC3)C1 (stereo not shown) [8-chloro-7-hydroxy-3-methyl-5-(2,3-dihydrobenzofuran-7-yl)-2,3,4,5-tetrahydro-1H-3-benzazepine, reference compound] | 0.06 | 4.5 | 75 | bioavailability (in vivo [1]): 5.5% |
| 42 | – | CN1CCc2cc([N+](=O)[O-])c(O)cc2C(c2ccccc2F)C1 (stereo not shown) [Example 1, 5-(2-fluorophenyl)-7-hydroxy-3-methyl-8-nitro-2,3,4,5-tetrahydro-1H-3-benzazepine] | – | – | – | – |
| 28 | – | Cc1ccccc1C1CN(C)CCc2cc([N+](=O)[O-])c(O)cc21 (stereo not shown) [Example 3, 7-hydroxy-3-methyl-8-nitro-5(2-methyl-phenyl)-2,3,4 5-tetrahydro-1H-3-benzazepine] | – | – | – | – |
| 88 | – | CN1CCc2cc([N+](=O)[O-])c(O)cc2C(c2ccc3c(c2)CCC3)C1 (stereo not shown) [Example 6, 7-hydroxy-5-(5-indanyl)-3-methyl-8-nitro-2,3,4,5-tetrahydro-1H-3-benzazepine] | – | – | – | – |
